# Measured values as given in ChEMBL document CHEMBL4813912, “Progress in the Development of Small Molecular Inhibitors of Focal Adhesion Kinase (FAK)” (J Med Chem, 2020).
# Columns and labels:
# RD = assay: Cytotoxicity against human RD cells incubated for 96 hrs by DIMSCAN method; type: functional, cell-based
# BT-474 = assay: Antiproliferative activity against human BT-474 cells incubated for 72 hrs by MTT assay; type: functional, cell-based; conditions: BT-474, 72 h
# MDA-MB-231 = assay: Antiproliferative activity against human MDA-MB-231 cells incubated for 72 hrs by MTT assay; type: functional, cell-based; conditions: MDA-MB-231, 72 h
# T47D = assay: Antiproliferative activity against human T-47D cells incubated for 72 hrs by MTT assay; type: functional, cell-based
# MCF7 = assay: Antiproliferative activity against human MCF7 cells incubated for 72 hrs by MTT assay; type: functional, cell-based; conditions: MCF7, 72 h
# Focal adhesion kinase 1 [1] = molecular target: T1, Focal adhesion kinase 1 (Homo sapiens, UniProt Q05397); assay: Inhibition of FAK in human U87MG cells assessed as reduction in phosphorylation at Y397 residue incubated for 30 mins by Western blot analysis
# Focal adhesion kinase 1 [2] = molecular target: T1, Focal adhesion kinase 1; assay: Inhibition of FAK in human A549 cells assessed as reduction in phosphorylation at Y397 residue incubated for 30 mins by Western blot analysis
# Focal adhesion kinase 1 [3] = molecular target: T1, Focal adhesion kinase 1; assay: Inhibition of FAK in human OVCAR8 cells assessed as reduction in phosphorylation at Y397 residue incubated for 30 mins by Western blot analysis
# [4] = molecular target: Protein-tyrosine kinase 2-beta (Homo sapiens, UniProt Q14289); assay: Inhibition of pyk2 (unknown origin)
# OVCAR-3 = assay: Cytotoxicity against human OVCAR-3 cells in presence of metformin and carboplatin relative to control; type: functional
# Focal adhesion kinase 1 [5] = molecular target: T1, Focal adhesion kinase 1
# Description: Inhibition of FAK (unknown origin) (410 to 689 residues) assessed as reduction in poly(Glu-Tyr) phosphorylation using poly (Glu,Tyr) as substrate by ELISA-based assay
# [6] = molecular target: von Hippel-Lindau disease tumor suppressor/Focal adhesion kinase 1 (Homo sapiens) (UniProt Q05397+P40337); assay: Induction of VHL-mediated FAK degradation in human PC3 cells at 10 to 10000 nM incubated for 24 hrs by Western blot analysis relative to control; type: cell-based; conditions: PC-3, dose 10-10000 nM
# Chain of von Hippel-Lindau disease tumor suppressor/Focal adhesion kinase 1 (Homo sapiens) (P40337 whole entry partner): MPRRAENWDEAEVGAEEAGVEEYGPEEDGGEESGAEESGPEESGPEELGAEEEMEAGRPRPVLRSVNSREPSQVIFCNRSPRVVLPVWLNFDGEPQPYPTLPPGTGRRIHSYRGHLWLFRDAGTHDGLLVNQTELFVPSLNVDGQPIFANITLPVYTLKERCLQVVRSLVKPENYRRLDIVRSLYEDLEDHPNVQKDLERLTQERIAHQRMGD
# Chain of von Hippel-Lindau disease tumor suppressor/Focal adhesion kinase 1 (Homo sapiens) (Q05397 2-1052 limits assumed): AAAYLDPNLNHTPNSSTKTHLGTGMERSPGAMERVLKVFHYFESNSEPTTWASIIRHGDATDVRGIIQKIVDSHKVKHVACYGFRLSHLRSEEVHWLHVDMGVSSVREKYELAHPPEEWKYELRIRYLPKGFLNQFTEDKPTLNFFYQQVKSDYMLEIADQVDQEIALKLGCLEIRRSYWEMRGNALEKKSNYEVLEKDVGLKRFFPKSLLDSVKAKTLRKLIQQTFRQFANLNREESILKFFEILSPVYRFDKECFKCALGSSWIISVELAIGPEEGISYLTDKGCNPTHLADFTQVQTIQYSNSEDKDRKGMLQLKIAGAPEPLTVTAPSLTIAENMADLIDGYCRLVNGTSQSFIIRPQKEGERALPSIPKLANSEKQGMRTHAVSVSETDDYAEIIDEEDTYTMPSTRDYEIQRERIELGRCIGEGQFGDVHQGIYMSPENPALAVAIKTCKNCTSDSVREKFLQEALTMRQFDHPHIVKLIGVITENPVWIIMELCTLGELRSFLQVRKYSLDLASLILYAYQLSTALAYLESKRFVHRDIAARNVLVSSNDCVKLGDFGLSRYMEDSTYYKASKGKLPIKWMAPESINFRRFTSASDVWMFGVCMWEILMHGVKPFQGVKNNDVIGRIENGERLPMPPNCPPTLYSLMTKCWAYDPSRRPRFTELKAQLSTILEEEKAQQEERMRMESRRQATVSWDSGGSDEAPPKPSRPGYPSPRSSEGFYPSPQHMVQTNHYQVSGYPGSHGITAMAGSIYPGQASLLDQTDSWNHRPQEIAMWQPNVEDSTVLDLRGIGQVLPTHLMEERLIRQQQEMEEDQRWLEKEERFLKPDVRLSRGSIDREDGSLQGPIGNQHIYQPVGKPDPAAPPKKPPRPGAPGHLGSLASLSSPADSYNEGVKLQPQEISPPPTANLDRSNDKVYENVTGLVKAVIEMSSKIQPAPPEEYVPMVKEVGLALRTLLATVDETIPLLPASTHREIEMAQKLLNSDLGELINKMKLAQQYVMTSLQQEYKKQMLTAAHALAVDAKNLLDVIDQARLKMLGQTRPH
# T1 sequence (Q05397 whole entry): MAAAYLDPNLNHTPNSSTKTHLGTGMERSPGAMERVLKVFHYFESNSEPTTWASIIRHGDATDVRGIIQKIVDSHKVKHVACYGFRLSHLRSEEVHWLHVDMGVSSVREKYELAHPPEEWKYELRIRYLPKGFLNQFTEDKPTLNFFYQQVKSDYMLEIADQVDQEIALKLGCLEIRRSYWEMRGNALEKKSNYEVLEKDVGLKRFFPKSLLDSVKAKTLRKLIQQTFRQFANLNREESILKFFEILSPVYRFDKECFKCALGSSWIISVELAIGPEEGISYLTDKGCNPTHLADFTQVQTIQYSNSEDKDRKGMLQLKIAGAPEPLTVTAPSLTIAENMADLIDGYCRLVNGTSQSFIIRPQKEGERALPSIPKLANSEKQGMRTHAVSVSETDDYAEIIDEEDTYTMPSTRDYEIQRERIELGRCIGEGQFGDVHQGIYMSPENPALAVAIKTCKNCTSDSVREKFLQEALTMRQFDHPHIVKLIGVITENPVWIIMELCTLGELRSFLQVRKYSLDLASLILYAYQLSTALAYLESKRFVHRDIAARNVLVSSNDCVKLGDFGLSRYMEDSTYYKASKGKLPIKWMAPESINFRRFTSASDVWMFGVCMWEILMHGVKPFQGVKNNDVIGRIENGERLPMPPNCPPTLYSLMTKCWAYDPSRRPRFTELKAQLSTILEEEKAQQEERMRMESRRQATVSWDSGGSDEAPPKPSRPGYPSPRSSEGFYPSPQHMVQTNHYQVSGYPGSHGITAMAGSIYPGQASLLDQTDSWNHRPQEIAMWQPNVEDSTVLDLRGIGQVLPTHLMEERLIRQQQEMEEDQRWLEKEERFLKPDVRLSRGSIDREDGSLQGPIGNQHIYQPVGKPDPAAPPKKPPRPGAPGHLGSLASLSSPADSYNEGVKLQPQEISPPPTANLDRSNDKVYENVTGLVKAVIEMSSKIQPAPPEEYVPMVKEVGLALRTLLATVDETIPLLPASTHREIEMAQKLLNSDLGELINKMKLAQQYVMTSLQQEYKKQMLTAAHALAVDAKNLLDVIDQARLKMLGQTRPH
# Chain of Protein-tyrosine kinase 2-beta (Q14289 whole entry): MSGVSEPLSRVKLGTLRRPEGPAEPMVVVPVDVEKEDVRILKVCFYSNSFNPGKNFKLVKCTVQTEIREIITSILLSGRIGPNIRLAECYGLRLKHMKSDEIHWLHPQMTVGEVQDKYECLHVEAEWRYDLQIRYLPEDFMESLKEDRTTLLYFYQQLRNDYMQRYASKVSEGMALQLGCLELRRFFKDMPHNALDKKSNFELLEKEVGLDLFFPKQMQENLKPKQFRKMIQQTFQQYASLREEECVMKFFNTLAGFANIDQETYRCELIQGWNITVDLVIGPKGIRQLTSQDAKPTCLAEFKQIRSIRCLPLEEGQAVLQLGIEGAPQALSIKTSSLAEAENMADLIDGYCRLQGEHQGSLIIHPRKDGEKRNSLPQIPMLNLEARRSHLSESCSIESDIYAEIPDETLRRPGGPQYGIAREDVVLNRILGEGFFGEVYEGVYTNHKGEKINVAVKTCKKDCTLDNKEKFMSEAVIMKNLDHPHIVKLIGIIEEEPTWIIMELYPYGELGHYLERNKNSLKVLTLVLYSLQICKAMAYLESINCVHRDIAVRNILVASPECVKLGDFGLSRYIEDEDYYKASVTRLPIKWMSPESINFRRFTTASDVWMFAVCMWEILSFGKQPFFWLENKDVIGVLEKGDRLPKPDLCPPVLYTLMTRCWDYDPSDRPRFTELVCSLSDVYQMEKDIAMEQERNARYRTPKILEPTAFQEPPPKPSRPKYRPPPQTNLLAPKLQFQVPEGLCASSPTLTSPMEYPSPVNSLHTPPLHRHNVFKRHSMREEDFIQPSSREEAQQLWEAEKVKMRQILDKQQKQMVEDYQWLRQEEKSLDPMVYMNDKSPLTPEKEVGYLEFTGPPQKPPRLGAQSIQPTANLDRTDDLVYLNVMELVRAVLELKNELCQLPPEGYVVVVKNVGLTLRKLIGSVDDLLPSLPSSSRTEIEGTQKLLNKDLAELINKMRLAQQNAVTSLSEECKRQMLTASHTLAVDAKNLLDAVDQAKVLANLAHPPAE
smiles,measurement,setting,value
CNC(=O)c1ccccc1Nc1cc(Nc2ccc(N3CCOCC3)cc2OC)ncc1C(F)(F)F [VS-4718],IC50,RD,1220 nM
CC1=CC[C@@]2(O)[C@H](CC[C@]2(C)O)C(C)(C)[C@@H]1CC[C@H]1[C@]2(C)CC[C@H](OC(=O)c3ccc(Cl)c(Cl)c3)C(C)(C)O[C@H]2CC[C@@]1(C)O,IC50,BT-474,20100 nM
same,IC50,MDA-MB-231,7500 nM
same,IC50,T47D,25100 nM
same,IC50,MCF7,15200 nM
CONC(=O)c1ccccc1Nc1cc(Nc2cc(C)nn2C(C)C)ncc1Cl [GSK-2256098],IC50,Focal adhesion kinase 1 [1],8.5 nM
same,IC50,Focal adhesion kinase 1 [2],12 nM
same,IC50,Focal adhesion kinase 1 [3],15 nM
CS(=O)(=O)c1cccc(CNc2nc(Nc3ccc4c(c3)CC(=O)N4)ncc2C(F)(F)F)c1,IC50,[4],1000 nM
same,Activity,OVCAR-3,94%
same,IC50,Focal adhesion kinase 1 [5],4 nM
Cc1ncsc1-c1ccc(CNC(=O)[C@@H]2C[C@@H](O)CN2C(=O)[C@@H](NC(=O)CCOCCOc2ccc(Nc3ncc(C(F)(F)F)c(NCc4cccc(N(C)S(C)(=O)=O)c4)n3)cc2)C(C)(C)C)cc1,Emax,[6],99%
